Publication PMC6177235 (Bioorganic & medicinal chemistry, 2018)
≈ marks a conversion by molar mass, not a printed value. Entries after “also recorded” stand apart in the source; their conditions may differ. Values belong to the compound of their own block, whether it stands above or below them.

Columns and labels:
[1] = tested on: OVCAR3 human ovarian cancer cell line; assay: Cytotoxicity assay, OVCAR3 cells; type: cell-based; conditions: OVCAR-3, 72 h, read-out: IC50 toward OVCAR3 cells
[2] = tested on: DU145 human prostate cancer cells; conditions: prostate tumor model; cited from earlier work
NF-κB p65 in HeLa cells = NF-κB p65 in HeLa cells (Homo sapiens, UniProt Q04206); assay: Enzyme-based ELISA assay for NF-κB inhibition; type: cell-based
[3] = Cytotoxicity assays, statements on the whole panel of cell lines; conditions: human
in vitro = conditions: human
[4] = tested on: mitochondrial transmembrane potential (MTP) in HT-29 cells; assay: Mitochondrial transmembrane potential; type: cell-based, human
[5] = tested on: HT-29, MDA-MB-231, MDA-MB-435 and OVCAR3 human cancer cell lines; assay: Cytotoxicity assays, statements on the whole panel of cell lines; conditions: all cytotoxicity assays used
melanoma tumor = conditions: cited from earlier work

Chain of NF-κB p65 in HeLa cells (Q04206 whole entry): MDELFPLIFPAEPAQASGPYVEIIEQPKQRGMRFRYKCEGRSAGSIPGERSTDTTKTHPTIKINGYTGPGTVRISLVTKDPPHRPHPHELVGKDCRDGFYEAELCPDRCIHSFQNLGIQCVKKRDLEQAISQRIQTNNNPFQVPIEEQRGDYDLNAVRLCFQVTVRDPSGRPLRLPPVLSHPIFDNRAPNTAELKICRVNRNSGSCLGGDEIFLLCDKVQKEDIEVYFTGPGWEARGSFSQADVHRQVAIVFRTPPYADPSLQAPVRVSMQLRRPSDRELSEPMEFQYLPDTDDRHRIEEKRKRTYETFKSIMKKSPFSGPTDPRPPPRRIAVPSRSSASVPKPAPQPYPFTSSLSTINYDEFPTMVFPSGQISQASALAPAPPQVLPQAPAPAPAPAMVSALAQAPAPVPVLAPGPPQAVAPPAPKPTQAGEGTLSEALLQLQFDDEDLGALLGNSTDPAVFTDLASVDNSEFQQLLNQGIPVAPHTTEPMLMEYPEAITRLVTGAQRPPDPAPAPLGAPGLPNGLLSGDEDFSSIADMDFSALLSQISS

Structure (SMILES): C[C@H]1[C@H](C)CC[C@]2(C(=O)O)CC[C@]3(C)C(=CC[C@@H]4[C@@]5(C)CC[C@H](O)C(C)(C)[C@@H]5CC[C@]43C)[C@H]12 [Compound 1, (+)-ursolic acid]
IC50 [1]: 12.9 µg/mL (≈ 28.2 µM)
mouse body weight [2]: without significant decrease

Structure (SMILES): C=C(C)[C@@H]1CC[C@]2(C(=O)OC)CC[C@]3(C(=O)O)[C@H](CC[C@@H]4[C@@]5(C)CC[C@H](O)C(C)(C)[C@@H]5CC[C@]43C)[C@@H]12 [Compound 3, (+)-melaleucic acid 28-methyl ester]
activity in the NF-κB inhibition assay (in words) (NF-κB p65 in HeLa cells): exhibited activity
IC50 at 72 h [3]: > 10 µM

Structure (SMILES): C=C(C)[C@@H]1CC[C@]2(C(=O)O)CC[C@]3(C(=O)O)[C@H](CC[C@@H]4[C@@]5(C)CC[C@H](O)C(C)(C)[C@@H]5CC[C@]43C)[C@@H]12 [Compound 4, (+)-melaleucic acid]
IC50 at 72 h [3]: > 10 µM

Structure (SMILES): C=C(C)[C@@H]1CC[C@]2(C(=O)O)CC[C@]3(C)[C@H](CC[C@@H]4[C@@]5(C)C[C@@H](O)[C@H](O)C(C)(C)[C@@H]5CC[C@]43C)[C@@H]12 [Compound 5, (+)-alphitolic acid]
activity in the NF-κB inhibition assay (in words) (NF-κB p65 in HeLa cells): exhibited activity
IC50 at 72 h [3]: > 10 µM

Structure (SMILES): C=C(C)[C@@H]1CC[C@]2(C(=O)O)CC[C@]3(CO)[C@H](CC[C@@H]4[C@@]5(C)CC[C@H](O)C(C)(C)[C@@H]5CC[C@]43C)[C@@H]12 [Compound 6, (+)-cylicodiscic acid]
IC50 at 72 h [3]: > 10 µM

Structure (SMILES): C=C(C)[C@@H]1CC[C@]2(C(=O)O)CC[C@]3(C)[C@H](CC[C@@H]4[C@@]5(C)C[C@@H](O)[C@H](OC(=O)/C=C/c6ccc(O)cc6)C(C)(C)[C@@H]5CC[C@]43C)[C@@H]12 [Compound 7, (+)-3-O−β-trans-p−coumaroylalphitolic acid]
IC50 at 72 h (in vitro): > 10 µM
activity in the NF-κB inhibition assay (in words) (NF-κB p65 in HeLa cells): exhibited activity

Structure (SMILES): CC1(C)CC[C@]2(C(=O)O)CC[C@]3(C)C(=CC[C@@H]4[C@@]5(C)CC[C@H](O)C(C)(C)[C@@H]5CC[C@]43C)[C@@H]2C1 [Compound 8, (+)-oleanolic acid]
activity in the MTP inhibition assay (in words) [4]: inactive
activity in the cytotoxicity assays (in words) [5]: Neither 8 nor 9 showed activity

Structure (SMILES): C=C(C)[C@@H]1CC[C@]2(C(=O)O)CC[C@]3(C)[C@H](CC[C@@H]4[C@@]5(C)CC[C@H](O)C(C)(C)[C@@H]5CC[C@]43C)[C@@H]12 [Compound 9, (+)-betulinic acid]
activity in the MTP inhibition assay (in words) [4]: same potency as 1; also recorded: active
melanoma tumor growth in vivo (melanoma tumor; mice): inhibit completely
toxicity observed in mice (melanoma tumor; mouse, in vivo): without any obvious toxicity
activity in the cytotoxicity assays (in words) [5]: Neither 8 nor 9 showed activity

Structure (SMILES): C[C@H]1[C@H](C)CC[C@]2(CO)CC[C@]3(C)C(=CC[C@@H]4[C@@]5(C)CC[C@H](O)C(C)(C)[C@@H]5CC[C@]43C)[C@H]12 [Compound 10, (+)-uvaol]
activity in the NF-κB inhibition assay (in words) (NF-κB p65 in HeLa cells): did not show any activities
activity in the MTP inhibition assay (in words) [4]: did not show any activities
activity in the cytotoxicity assays (in words) [5]: did not show any activities

activity in the NF-κB inhibition assay (in words) (NF-κB p65 in HeLa cells): did not show any activities
Structure (SMILES): CC1(C)CC[C@]2(CO)CC[C@]3(C)C(=CC[C@@H]4[C@@]5(C)CC[C@H](O)C(C)(C)[C@@H]5CC[C@]43C)[C@@H]2C1 [Compound 11, (+)-erythrodiol]
activity in the MTP inhibition assay (in words) [4]: did not show any activities
activity in the cytotoxicity assays (in words) [5]: did not show any activities

Structure (SMILES): C=C(C)[C@@H]1CC[C@]2(CO)CC[C@]3(C)[C@H](CC[C@@H]4[C@@]5(C)CC[C@H](O)C(C)(C)[C@@H]5CC[C@]43C)[C@@H]12 [Compound 12, (+)-betulin]
activity in the NF-κB inhibition assay (in words) (NF-κB p65 in HeLa cells): exhibited activity
activity in the MTP inhibition assay (in words) [4]: did not show any activities; also recorded: inactive
activity in the cytotoxicity assays (in words) [5]: did not show any activities
IC50 at 72 h [3]: > 10 µM

Structure (SMILES): C=C(C)[C@@H]1CC[C@]2(C(=O)O)CC[C@]3(C)[C@H](CC[C@@H]4[C@@]5(C)CC[C@H](OC(=O)/C=C/c6ccc(O)c(OC)c6)C(C)(C)[C@@H]5CC[C@]43C)[C@@H]12 [S13, (+)-3β-O−tram,-feruloylbetulinic acid]
activity in the NF-κB inhibition assay (in words) (NF-κB p65 in HeLa cells): exhibited activity
activity in the MTP inhibition assay (in words) [4]: active
IC50 at 72 h [3]: > 10 µM
